Test [1] deals with Triosephosphate isomerase (Homo sapiens, UniProt P60174). As to the kind of experiment: Inhibition Assay. To be noted: pH 7.4; 37 °C. On the procedure:
(§1) The reaction mixture (1 mL, pH 7.4) contained 100mM triethanolamine, 10mM EDTA, 0.2mM NADH, 1mM glyceraldehyde 3-phosphate (GAP) and 0.9 units of α-glycerol phosphate dehydrogenase (α-GPDH). The reaction was initiated by addition of 5 ng/mL of the corresponding TIM or the corresponding TIM pre-incubated with the studied compounds. In these cases, inhibition assays, the enzymes were pre-incubated for 2 h at 37 °C with the studied compounds.

The target of test [2] is Triosephosphate isomerase, glycosomal (Trypanosoma brucei brucei, UniProt P04789). As to the kind of experiment: Inhibition Assay. The settings on record: pH 7.4; 37 °C. On the procedure:
as §1

Structures are written as SMILES.

By IC50 is commonly meant the midpoint of a concentration-inhibition curve. Lower therefore signals greater potency in that assay.

Sequence of Triosephosphate isomerase, glycosomal (P04789 whole entry): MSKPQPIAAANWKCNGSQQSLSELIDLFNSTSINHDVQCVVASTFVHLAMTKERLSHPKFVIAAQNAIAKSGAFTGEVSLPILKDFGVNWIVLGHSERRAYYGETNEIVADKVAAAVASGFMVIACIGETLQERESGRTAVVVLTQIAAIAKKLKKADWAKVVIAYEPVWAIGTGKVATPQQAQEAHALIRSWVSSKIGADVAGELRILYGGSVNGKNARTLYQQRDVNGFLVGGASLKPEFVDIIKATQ

`Cc1ccc(-c2nsc(=O)[nH]2)cc1` [TIM inhibitor, 1] registered an IC50 in test [1] of 100 µM.

In test [1], `Oc1ccc2nc3cc(Cl)c(Cl)cc3nc2c1` [TIM inhibitor, 2] registered an IC50 greater than 100 µM.

For the compound `O=C1C(=Cc2ccc([N+](=O)[O-])o2)C(=O)N(Cc2ccccc2)SN1Cc1ccccc1` [TIM inhibitor, 3], the values for the half-inhibitory concentration (IC50) in test [1] and in test [2] were greater than 100 µM and 34 µM, respectively.

Source of the values: BindingDB's records for doi:10.3109/14756366.2013.765415 (Universidad de la República, 2014).
